US20250163072A1, “MACROCYCLIC COMPOUNDS FOR THE TREATMENT OF CANCER” (Hoffmann-La Roche Inc., priority 2021, published 2025)

Legend:
[1] = test system: SW620 cells; assay: Cell viability assay, SW620; format: cell-based, human; conditions: Homo sapiens, SW-620, SW620, 72 hours, Cell Counting Kit-8, read-out: G12V IC50
Summary of the method: (§1)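 Cells were plated at 5,000 (NCI-H358) or 2,000 (AGS, SW620) per well and incubated overnight. They were then treated with compound in 0.5% DMSO for 72 h. Viability was read with CCK-8 as OD450 minus OD650 after 2 h, and IC50 came from a 4-parameter sigmoidal fit.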

[2] = Human hepatocytes stability assay; format: in vitro ADME; conditions: for CL_hep (Human): 1 μM compound, human hepatocytes 1×10^6 cells/mL; for Clearance Category: human hepatocytes
Description: The hepatocyte stability assay measures the rate of disappearance of a compound from incubations with cryopreserved suspension hepatocytes from human. Positive controls, including Midazolam, Raloxifene and Dextromethorphan, are included in every experiment. Incubations consist of 1 μM tested compound and suspension of human hepatocytes (1×10^6 cells/mL) in supplemented Williams' E Medium with […] and 0.5% Penicillin-streptomycin. The hepatocyte suspension was incubated with intermittent shaking 900 rpm at 37° C., in a 5% CO2 incubator. The reaction was stopped by adding methanol containing internal standard (2 μM Tolbutamide) at 2, 10, 20, 40, 60 and 120 minutes after compound addition, depletion of the parent compound was monitored by LC-MS/MS analysis.

[3] = test system: KRAS G12C in NCI-H358 cells; assay: pERK inhibition assay, NCI-H358; format: cell-based, human; conditions: Homo sapiens, 4 hours incubation
Summary of the method: (§2)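 NCI-H358, AGS and SW620 cells in RPMI-1640/10% FBS were plated overnight, then exposed to compound (0.5% DMSO final) for 4 h. After fixation and permeabilization, phospho-ERK was quantified by in-cell ELISA (HRP secondary, TMB, OD450); IC50 from a 4-parameter sigmoidal fit.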

[4] = molecular target: T1, KRAS G12C-BRAF complex (Homo sapiens (Human), UniProt P01116+P62937, G12C); assay: KRAS G12C-BRAF NanoBit assay; format: cell-based; conditions: HEK293 cells, SmBit-KRAS G12C and BRAF RBD-LgBit, 3 hours incubation
Description: This assay is to measure the ability of tested compounds in disruption of the KRAS G12C-BRAF complex at the cellular level, we established the NanoBit cellular assay in mammalian HEK293 (ATCC) cells. HEK293 cells were grown and maintained using DMEM medium (Thermo Fisher Scientific) with 10% fetal bovine serum and 1% penicillin/streptomycin. Both KRAS G12C and BRAF RBD were cloned into the NanoBit vectors ([…] vectors system, Promega) with the orientations SmBit-KRAS G12C and BRAF RBD-LgBit, respectively, and co-transfected into HEK293 cells. Cells were then selected with 100 μg/mL Hygromycin B (10687010, Thermo Fisher) and Blasticidin (5 μg/mL) for 4 weeks to get the stable cell pool. On the day of the assay, 75 nL of compound solution was presented in a 384-well assay plate as a 16-point 3-fold dilution starting from a final concentration of 30 μM in DMSO. Then cells were seeded at 10,000 cells/25 μL/well in a 384-well plate. After 3 hours of incubation, 6 μL of volume of Nano-Glo® Live Cell Substrate (Promega) was added into each well. Monitor luminescence using ultra384 model in Envision at 20 minutes. Compounds that facilitate disruption of the KRAS G12C-BRAF RBD complex were identified as those eliciting a decrease of luminescence relative to DMSO control wells.

[5] = test system: KRAS G12D in AGS cells; assay: pERK inhibition assay, AGS; format: cell-based, human; conditions: Homo sapiens, 4 hours incubation
Summary of the method: as §2

[6] = GSH reaction rates (inherent GSH reactivity); format: in vitro ADME; conditions: for T1/2(hour) in GSH: potassium phosphate buffer pH 7.4
Description: Therefore Strategy to minimize the GSH metabolism is very critical. Short T1/2 in inherent GSH reaction indicated high GSH reaction rate. Thus T1/2 in inherent GSH reaction assay was determined for the screening of candidates. Reference compounds and compounds of this invention potentially could form conjugation with GSH either through halogenated moieties substitution reaction or direct Michael addition reaction. This test was therefore performed to check GSH reactivity of listed compounds. For inherent GSH reactivity determination, compounds at 1 μM were incubated at 37° C. with and without 5 mM GSH for 0, 0.5, 1, 2, 4 and 6 h in 100 mM potassium phosphate buffer at pH 7.4. At the end of the designated time points, samples were quenched with acetonitrile containing 10 mM N-ethylmaleimide and an internal standard. Quenched samples were centrifuged, and supernatants were analyzed by LC-MS/MS for compound quantification.

[7] = test system: AGS cells; assay: Cell viability assay, AGS; format: cell-based, human; conditions: Homo sapiens, 72 hours, Cell Counting Kit-8, read-out: G12D IC50
Summary of the method: as §1

[8] = test system: NCI-H358 cells; assay: Cell viability assay, NCI-H358; format: cell-based, human; conditions: Homo sapiens, NCI-H358, 72 hours, Cell Counting Kit-8, read-out: G12C IC50
Summary of the method: as §1

[9] = test system: KRAS G12V in SW620; assay: pERK inhibition assay, SW620; format: cell-based, human; conditions: Homo sapiens, SW-620, SW620 cells, 4 hours incubation
Summary of the method: as §2

[10] = molecular target: KRAS G12V binding to BRAF (Homo sapiens (Human), UniProt P01116+P62937, G12V); assay: KRAS-BRAF with CYPA (50 nM) interaction assay (TR-FRET), G12V; conditions: GMPPNP loaded 6His-KRAS, GST-BRAF RBD
Description: (§3) In this example, TR-FRET was also used to measure the compound or compound-CYPA dependent disruption of the KRAS G12C-BRAF complex. This protocol was also used to measure disruption of KRAS G12D or KRAS G12V binding to BRAF by a compound of the invention, respectively. In assay buffer containing 25 mM HEPES PH=7.4 (4-(2-hydroxyethyl)-1-piperazineethanesulfonic acid, Thermo, 15630080), 0.002% Tween20, 0.1% BSA, 100 mM NaCl, 5 mM MgCl2, 10 μM GMPPNP (Guanosine 5'-[β,γ-imido]triphosphate trisodium salt hydrate, Sigma, G0635), tagless CYPA, GMPPNP loaded 6His-KRAS proteins, and GST-BRAF^RBD were mixed in a well of a 384-well assay plate at final concentrations of 50 nM, 6.25 nM and 1 nM, respectively. Compound was present in plate wells as a 16-point 3-fold dilution series starting at a final concentration of 10 μM and incubated for 3 hours. A mixture of MAb Anti-6His-XL665 (Cisbio, 61HISXLB) and Mab anti-GST-TB cryptate (Cisbio, 61GSTTLB) was then added at a final concentration of 6.67 nM and 0.21 nM, respectively, and the plate was incubated for an additional 1.5 hours. TR-FRET signal was read on a […] microplate reader (Ex320 nm, Em 665/615 nm). Compounds that facilitate disruption of the KRAS-BRAF complex were identified as those eliciting a decrease in the TR-FRET ratio relative to DMSO control wells.

[11] = molecular target: T1, KRAS G12C-BRAF complex; assay: KRAS-BRAF with CYPA (50 nM) interaction assay (TR-FRET), G12C; format: binding; conditions: GMPPNP loaded 6His-KRAS, GST-BRAF RBD
Description: as §3

[12] = molecular target: KRAS G12D binding to BRAF (Homo sapiens (Human), UniProt P01116+P62937, G12D); assay: KRAS-BRAF with CYPA (50 nM) interaction assay (TR-FRET), G12D; conditions: GMPPNP loaded 6His-KRAS, GST-BRAF RBD
Description: as §3

[13] = 1 μM compound, 5 mM GSH, 37° C., pH 7.4, 6 hr
[14] = 1 μM compound, 5 mM GSH, 37° C.

T1 sequence (P01116-2 other isoform, or with tags, fused parts or gaps G12C): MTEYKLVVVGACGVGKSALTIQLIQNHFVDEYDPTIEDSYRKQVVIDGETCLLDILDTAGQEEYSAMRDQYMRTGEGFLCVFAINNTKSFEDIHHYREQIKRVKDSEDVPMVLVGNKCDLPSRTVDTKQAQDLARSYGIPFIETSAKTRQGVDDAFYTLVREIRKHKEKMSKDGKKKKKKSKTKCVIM
T1 sequence (P62937 whole entry): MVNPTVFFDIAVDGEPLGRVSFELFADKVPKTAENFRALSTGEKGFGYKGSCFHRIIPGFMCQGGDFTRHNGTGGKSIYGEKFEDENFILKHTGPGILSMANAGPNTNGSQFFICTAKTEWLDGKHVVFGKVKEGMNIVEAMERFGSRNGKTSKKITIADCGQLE
Sequence of KRAS G12D binding to BRAF (P01116-2 other isoform, or with tags, fused parts or gaps G12D): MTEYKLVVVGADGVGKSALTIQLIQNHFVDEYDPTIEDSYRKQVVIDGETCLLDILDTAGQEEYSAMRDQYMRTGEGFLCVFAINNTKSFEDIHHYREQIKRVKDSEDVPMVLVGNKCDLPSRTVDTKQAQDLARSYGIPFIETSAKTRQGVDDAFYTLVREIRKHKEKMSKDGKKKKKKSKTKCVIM
Sequence of KRAS G12D binding to BRAF (P62937 whole entry): as the sequence (P62937 whole entry) above
Sequence of KRAS G12V binding to BRAF (P01116-2 other isoform, or with tags, fused parts or gaps G12V): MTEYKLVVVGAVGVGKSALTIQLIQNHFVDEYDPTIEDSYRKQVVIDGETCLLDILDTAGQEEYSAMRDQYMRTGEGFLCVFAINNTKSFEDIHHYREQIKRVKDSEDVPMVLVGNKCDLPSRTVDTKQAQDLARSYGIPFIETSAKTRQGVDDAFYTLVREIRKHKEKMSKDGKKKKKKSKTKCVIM
Sequence of KRAS G12V binding to BRAF (P62937 whole entry): as the sequence (P62937 whole entry) above

Row | Structure (SMILES) | IC50 [1] [nM] | CL_hep (Human) [2] [mL/min/kg] | Clearance Category [2] | IC50 [3] [nM] | IC50 [4] [nM] | IC50 [5] [nM] | Remaining at 6 hr in GSH (%) ([6]; 6 h, 1 μM, pH 7.4) | IC50 [7] [nM] | IC50 [8] [nM] | IC50 [9] [nM] | IC50 [10] [nM] | IC50 [11] [nM] | IC50 [12] [nM] | Remaining at 6 hr in GSH (%) [6, 13] [%] | T1/2(hour) in GSH [6, 14]
1 | CCn1c(-c2cc(N3CCN(C)CC3)cnc2[C@H](C)OC)c2c3cc(ccc31)-c1csc(n1)C[C@H](NC(=O)[C@H](C(C)C)N(C)C(=O)[C@H]1CCN(C(=O)[C@H](F)Cl)C1)C(=O)N1CCCC(N1)C(=O)OCC(C)(C)C2 (stereo partly drawn) [Example 10, (3S)-1-[(2R)-2-chloro-2-fluoro-acetyl]-N-[(1S)-1-[[(7S,13S)-21-ethyl-(20M)-20-[2-[(1S)-1-methoxyethyl]-5-(4-methylpiperazin-1-yl)-3-pyridyl]-17,17-dimethyl-8,14-dioxo-15-oxa-4-thia-9,21,27,28-tetrazapentacyclo[17.5.2.12,5.19,13.022,26]octacosa-1(25),2,5(28),19,22(26),23-hexaen-7-yl]carbamoyl]-2-methyl-propyl]-N-methyl-pyrrolidine-3-carboxamide] | 59 | <2.4 | low (CL_hep (mL/min/kg)<6.96 is low clearance) | 3 | 21 | 31 | 85 | 52 | 0.4 | 11 |  |  |  |  | 
2 | CCn1c(-c2cccnc2[C@H](C)OC)c2c3cc(ccc31)-c1cc(O)cc(c1)C[C@H](NC(=O)[C@H](C(C)C)N(C)C(=O)[C@H]1CCN(C(=O)C(F)Cl)C1)C(=O)N1CCC[C@H](N1)C(=O)OCC(C)(C)C2 (stereo partly drawn) [Example 2, (3S)-1-[(2R)-2-chloro-2-fluoro-acetyl]-N-[(1S)-1-[[(8S,14S)-22-ethyl-4-hydroxy-(21M)-21-[2-[(1S)-1-methoxyethyl]-3-pyridyl]-18,18-dimethyl-9,15-dioxo-16-oxa-10,22,28-triazapentacyclo[18.5.2.12,6.110,14.023,27]nonacosa-1(26),2,4,6(29),20,23(27),24-heptaen-8-yl]carbamoyl]-2-methyl-propyl]-N-methyl-pyrrolidine-3-carboxamide] | 156 |  |  | 3 | 68 | 56 |  | 83 | 2 | 37 | 25 | 6 | 298 |  | 
3 | CO[C@@H](C)c1ncc(N2CCN(C)CC2)cc1-c1c2c3cc(ccc3n1CC(F)(F)F)-c1csc(n1)C[C@H](NC(=O)[C@H](C(C)C)N(C)C(=O)[C@H]1CCN(C(=O)[C@H](F)Cl)C1)C(=O)N1CCC[C@H](N1)C(=O)OCC(C)(C)C2 (atropisomer, axis not shown; (M)) [Example 21, (3S)-1-[(2R)-2-chloro-2-fluoro-acetyl]-N-[(1S)-1-[[(7S,13S)-(20M)-20-[2-[(1S)-1-methoxyethyl]-5-(4-methylpiperazin-1-yl)-3-pyridyl]-17,17-dimethyl-8,14-dioxo-21-(2,2,2-trifluoroethyl)-15-oxa-4-thia-9,21,27,28-tetrazapentacyclo[17.5.2.12,5.19,13.022,26]octacosa-1(25),2,5(28),19,22(26),23-hexaen-7-yl]carbamoyl]-2-methyl-propyl]-N-methyl-pyrrolidine-3-carboxamide] | 8 | <2.4 | low (CL_hep (mL/min/kg)<6.96 is low clearance) | 1 |  | 14 |  | 44 | 0.3 | 5 | > 10000 | 21 | > 10000 | 88 | stable (If % depletion after 6 hour incubation is less than 20%, compounds were reported as stable)
4 | CO[C@@H](C)c1ncc(N2CCN(C)CC2)cc1-c1c2c3cc(ccc3n1CC(F)(F)F)-c1csc(n1)C[C@H](NC(=O)[C@H](C(C)C)N1CCCC3(CCN(C(=O)[C@H](F)Cl)C3)C1=O)C(=O)N1CCC[C@H](N1)C(=O)OCC(C)(C)C2 (stereo partly drawn) [Example 19, (2S)-2-[2-[(2R)-2-chloro-2-fluoro-acetyl]-6-oxo-2,7-diazaspiro[4.5]decan-7-yl]-N-[(7S,13S)-(20M)-20-[2-[(1S)-1-methoxyethyl]-5-(4-methylpiperazin-1-yl)-3-pyridyl]-17,17-dimethyl-8,14-dioxo-21-(2,2,2-trifluoroethyl)-15-oxa-4-thia-9,21,27,28-tetrazapentacyclo[17.5.2.12,5.19,13.022,26]octacosa-1(25),2,5(28),19,22(26),23-hexaen-7-yl]-3-methyl-butanamide] | 15 | 10.1 | medium (16.24<CL_hep (mL/min/kg)>6.96 is medium clearance) | 3 | 21 | 28 |  | 18 | 0.9 | 8 |  |  |  | 85 | stable (If % depletion after 6 hour incubation is less than 20%, compounds were reported as stable)
